Measured values reported in patent publication US20130156753A1 (UNIVERSITY OF ROCHESTER, priority 2010, published 2013).
No end group written: not given here.

Legend:
[1] = tested on: HDAC5 nuclear export; assay: PMA-induced GFP-HDAC5 nuclear export in Cos7 cells (fluorescence microscopy); format: cell-based; details: for PMA-induced HDAC5 nuclear export: GFP-HDAC5-WT, pretreatment, then PMA for 3 hours
Protocol: (§1) A, B, Cos7 cells were co-transfected with expression vectors encoding GFP-tagged HDAC5 (GFP-HDAC5) and constitutively active protein kinases as indicated, and then exposed to phorbol-12-myristate-13-acetate (PMA, […]) for 3 hours. […] A-F, The cells were fixed and the subcellular localization of GFP-HDAC5 was visualized by fluorescence microscopy.
C, D, Cos7 cells were transfected with GFP-HDAC5-WT or GFP-HDAC5-S280D and then exposed to PMA for 3 hours. GFP-HDAC5-S280D but not GFP-HDAC5-WT was resistant to PMA-induced nuclear export. *, p<0.05 versus without PMA, n=4. E, F, Cos7 cells were transfected with Flag-HDAC5-WT or Flag-HDAC5-S280A mutant, and then pretreated with forskolin followed with the exposure to PMA. Phosphorylation of HDAC5 in cell lysates was analyzed by immunoblotting with phospho-specific HDAC5 antibodies that recognize the HDAC5 phosphorylated at Ser259 (E) and Ser498 (F). G, H, Cos7 cells were transfected with Flag-HDAC5-WT, Flag-HDAC5-S280A or Flag-HDAC5-S280D, and then pretreated with forskolin, followed with the exposure to PMA. Coimmunoprecipitation of Flag-HDAC5 in cell lysates and then immunoblotting with anti-14-3-3 beta and anti-Flag antibodies in immunoprecipitates were performed. 14-3-3 in total cell lysates (5% of the input) was determined by immunoblotting with anti-14-3-3 antibodies. Representative blots are shown, n=3.
The cells were fixed and GFP-HDAC5 localization was analyzed by fluorescence microscopy.
For analysis of GFP-HDAC5 subcellular localization in NRVMs and Cos7 cells, cells were plated in the presence of adenovirus (multiplicity of infection, 50 to 100) on 35 mm dishes containing DMEM plus 10% FBS as previously described (Vega R B, et al. (2004) Protein kinases C and D mediate agonist-dependent cardiac hypertrophy through nuclear export of histone deacetylase 5. Mol Cell Biol 24(19):8374-8385).
(§2) After 24 hour culture, cells were maintained in serum-free DMEM medium for additional 24 hours, and then exposed to various inducers or inhibitors (for 30 minutes) prior to PE or PMA stimulation for indicated times. The cells were washed with PBS and fixed with 3.7% formaldehyde in PBS. Images were captured at a magnification of ×60, using a fluorescence microscope (Olympus BX51) equipped with a digital camera and Spot software system (RT Color Diagnostic Instruments). For analysis of the myocyte marker, sarcomeric α-actinin antibody and DAPI in neonatal cardiomyocyte, immunocytochemistry were performed according to a standard protocol. For subcellular localization of endogenous HDAC5 in cardiomyocyes, we fixed cells and used the detergent Saponin (Sigma, 84510) to make cells permeable, and then performed immunocytochemistry with anti-HDAC5 antibody (Santa Cruz, sc-11419). For subcellular localization of HDAC5, total around 200 cells were counted in each condition. For cardiomyocyte size, total myocyte surface areas were calculated using NIH Image J software, and expressed as the average of 100 randomly selected cells per condition.

[2] = tested on: T1, GST-HDAC5-WT (273-286)
T1 sequence: KVAERRSSPLLRRK

[3] = tested on: Myc-HDAC5 AA 1-360
[4] = tested on: HDAC5 nuclear export; assay: PE-induced HDAC5 nuclear export in neonatal rat ventricular cardiomyocytes (NRVMs); format: cell-based
Protocol: as §1
The cells were fixed and GFP-HDAC5 localization was analyzed by fluorescence microscopy. α-actinin was detected by immunofluorescence using an antibody against α-actinin and a fluorescein-conjugated secondary antibody. The nuclei were stained with DAPI.
The cells were fixed and GFP-HDAC5 localization was analyzed by fluorescence microscopy. α-actinin was detected by immunofluorescence using an antibody against α-actinin and a fluorescein-conjugated secondary antibody. The nuclei were stained with DAPI. B, PKA expression in cell lysates were determined by Western blot using PKA antibody.
The cells were fixed and endogenous HDAC5 localization was analyzed by fluorescence microscopy. HDAC5 and α-actinin was detected by immunocytochemistry with antibody against HDAC5 and α-actinin.
The cells were fixed and GFP-HDAC5 subcellular localization was analyzed by fluorescence microscopy and stained with an α-actinin antibody and DAPI.
Cos7 cells were grown in Dulbecco's Modified Eagle's Medium (DMEM) supplemented with fetal bovine serum (10%), 1-glutamine and penicillin/streptomycin. Primary cultures of neonatal rat cardiac ventricular myocytes (NRVMs) from 1- to 2-day-old Sprague-Dawley rats (Charles River Laboratories) were prepared. In brief, NRVMs were dispersed from the ventricles by digestion with collagenase type II (Worthington). Cells were cultured in Dulbecco's modified Eagle's medium (DMEM) supplemented with 1,000 mg/L D-glucose, L-glutamine, and 110 mg/L sodium pyruvate (GIBCO), fetal bovine serum (10%), and penicillin/streptomycin at 37° C. in a 5% CO2 humidified atmosphere for 2-3 days. For inducer or inhibitor studies, cells were pretreated with various inducers or inhibitors for 30 min in serum-free medium. Primary cultures of adult rat cardiomyocytes were prepared from 200-250g male Sprague-Dawley rats. Briefly, rats were anesthetized, hearts excised and placed in Krebs buffer and perfused and digested with endotoxin-free collagenase II (Worthington). This protocol typically yielded approximately 4×10^6 cells per heart, with ˜85% surviving, rod-shaped Ca2+-tolerant cells. Myocytes were allowed to attach to 20 μg/ml laminin coated plates in Modified Eagle Medium (MEM) containing 2.5% FBS, 25 mmol/L HEPES, 5 mmol/L taurine, 2 mmol/L carnitine, 2 mmol/L creatinine, 100 IU/ml penicillin, and 100 μg/ml streptomycin for 2 hrs before replacing with serum-free MEM containing 25 mmol/L HEPES, 5 mmol/L taurine, 2 mmol/L carnitine, 2 mmol/L creatinine, 100 IU/ml penicillin, and 100 μg/ml streptomycin.
Adenoviruses encoding Flag-tagged HDAC5 wild-type (WT), GFP-tagged HDAC5-WT, and YFP-tagged HDAC7-WT were generated as described previously (Ha C H, et al. (2008) Protein Kinase D-dependent Phosphorylation and Nuclear Export of Histone Deacetylase 5 Mediates Vascular Endothelial Growth Factor-induced Gene Expression and Angiogenesis. J Biol Chem 283(21):14590-14599; Ha C H et al. (2008) VEGF stimulates HDAC7 phosphorylation and cytoplasmic accumulation modulating matrix metalloproteinase expression and angiogenesis. Arterioscler Thromb Vasc Biol 28(10):1782-1788). Adenovirus expressing GFP-tagged HDAC5-S280A mutant, GFP-tagged HDAC5-S280D mutant and Flag-tagged HDAC5-S280A mutant were generated by using ViraPower Adenoviral Expression System (Invitrogen) according to the manufacturer's protocol. Adenovirus containing β-galactosidase (LacZ) or GFP was used as a control. […]

[5] = tested on: NRVMs; assay: Cardiomyocyte hypertrophy (cell size, α-actinin immunostaining) in NRVMs; format: cell-based, rat
Description: A-H, Cardiomyocyte size was detected by immunostaining with anti-α-actinin antibody. […] The cells were fixed and analyzed for GFP-HDAC5 localization, α-actinin staining and nuclear DAPI staining *, p<0.05 versus without PE; #, p<0.05 versus with PE alone. I, Schematic model for PKA-dependent regulation of HDAC5 subcellular localization and gene transcription.
Cardiomyocyte protein marker α-actinin was detected by immunofluorescence using antibody against α-actinin and fluorescein-conjugated secondary antibody.
as §2

[6] = tested on: HDAC7 nuclear export; assay: PMA-induced YFP-HDAC7 nuclear export in Cos7 cells; format: cell-based
Protocol: Transient transfection of plasmid DNA was performed using lipofectamine 2000 (Invitrogene, Carlsbad, Calif.) and 0.5 μg of the indicated plasmids.

[7] = tested on: ANF, β-MHC, α-SMA expression; assay: RT-PCR of cardiac fetal gene expression in NRVMs; format: cell-based, rat; details: NRVMs with GFP-HDAC5-WT; PE 24 hours
Protocol: The mRNA was extracted from the cell lysates and then RT-PCR with the primers for ANF, β-MHC, α-SMA, and GADPH (internal control) was performed. *, p<0.05 versus PE+Ad-GFP; #, p<0.05 versus PE+GFP-HDAC5-WT, n=4.
The mRNA was extracted from the cell lysates, and quantitative RT-PCR with the primers for ANF and GADPH (internal control) were performed as described in the Examples. Quantitative data are shown (n=4).
Total RNA was isolated from NRVM using TRIzol (Invitrogen Corp.). Firststrand cDNA was synthesized with the SuperScript Preamplification System (Gibco-BRL). cDNA was amplified by PCR for 30 cycle (Applied Biosystem) as described previously (4, 5). Rat GAPDH served as an internal control. The following oligonucleotide primers were used in this study: rat ANF, sense 5′-[…]-3′ (SEQ ID NO:11) and antisense 5′-[…]-3′(SEQ ID NO:12) rat α-SMA, sense 5′-[…]-3′ (SEQ ID NO:13) and antisense 5′-[…]-3′ (SEQ ID NO:14); rat β-MHC (myosin heavy chain), sense 5′-[…]-3′ (SEQ ID NO:15) and antisense 5′-[…]-3′ (SEQ ID NO:16); rat GAPDH, sense 5′-[…]-3′ (SEQ ID NO:17) and antisense 5′-[…]-3′ (SEQ ID NO:18). Experiments were repeated three times.

[8] = NRVMs with GFP-HDAC5-WT, PE 24 hours

Sequence of Myc-HDAC5 AA 1-360 (chain, as listed by the source): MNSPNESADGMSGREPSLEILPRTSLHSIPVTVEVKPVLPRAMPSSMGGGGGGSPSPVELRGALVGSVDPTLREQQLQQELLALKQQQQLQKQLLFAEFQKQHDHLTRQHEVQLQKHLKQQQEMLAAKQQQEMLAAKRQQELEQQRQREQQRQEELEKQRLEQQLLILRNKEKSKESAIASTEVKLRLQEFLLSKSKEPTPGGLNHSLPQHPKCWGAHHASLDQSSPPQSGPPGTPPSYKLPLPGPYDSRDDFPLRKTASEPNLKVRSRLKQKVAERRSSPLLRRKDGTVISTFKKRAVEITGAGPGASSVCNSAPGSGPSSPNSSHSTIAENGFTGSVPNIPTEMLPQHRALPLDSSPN

CCCCCC[C@@H]([C@@H](C)O)n1cnc2c(N)ncnc21 (racemic) [EHNA, erythro-9-(2-hydroxy-3-nonyl)adenine]
PMA-induced HDAC5 nuclear export [1]: inhibited HDAC5 nuclear export

CC(C)Cn1c(=O)n(C)c(=O)c2[nH]cnc21 [IBMX, 3-isobutyl-1-methylxanthine]
PMA-induced HDAC5 nuclear export [1]: inhibited HDAC5 nuclear export

purified catalytic subunit of protein kinase A (PKA-CA, Calbiochem)
in vitro kinase assay, 32P autoradiography [2]: recombinant PKA-CA phosphorylated the GST-tagged peptide of HDAC5-WT
in vitro kinase assay, 32P autoradiography [3]: the similar phosphorylation by PKA-CA in an in vitro kinase assay (FIG. 14) was also detected

CCCC(=O)Nc1nc2c(ncn2[C@@H]2O[C@@H]3COP(=O)(O)O[C@H]3[C@H]2OC(=O)CCC)c(=O)[nH]1 [cGMP, DibutyrylcGMP]
PMA-induced HDAC5 nuclear export [1]: did not block HDAC5 nuclear export

PKA Inhibitor 14-22 Amide (SGRTGRRNA-NH2; UniProt P61925 14-22, looked up, fragment) [PKI]
effect on the inhibition of HDAC5 nuclear export by forskolin and cAMP ([1]; GFP-HDAC5, PKI pretreatment, then forskolin or cAMP, then PMA 3 hours): abolished the inhibition of forskolin and cAMP on HDAC5 nuclear export
effect on the inhibitory effects of cAMP on PE-induced HDAC5 nuclear export ([4]; NRVMs, GFP-HDAC5, PKA inhibition, then cAMP, PE 3 hours): abolished the inhibitory effects of cAMP on PE-induced HDAC5 nuclear export

CC(C)NCC(O)c1ccc(O)c(O)c1 (stereo not shown) [isoproterenol]
PMA-induced HDAC5 nuclear export [1]: inhibited HDAC5 nuclear export
PE-stimulated HDAC5 nuclear export ([4]; NRVMs, adenoviral GFP-HDAC5, 30 min pretreatment, PE 10 μM 3 hours): markedly inhibited PE-stimulated HDAC5 nuclear export

COc1ccc(C2CNC(=O)C2)cc1OC1CCCC1 (stereo not shown) [rolipram]
PMA-induced HDAC5 nuclear export [1]: inhibited HDAC5 nuclear export
PE/Angiotensin II-induced cardiomyocyte hypertrophy ([5]; NRVMs, forskolin 10 μM, cAMP 500 μM, Rolipram 10 μM 30 min, PE or Angiotensin II 24 hours): inhibit PE/Angiotensin II-induced cardiomyocyte hypertrophy

C=C[C@@]1(C)CC(=O)[C@]2(O)[C@@]3(C)[C@@H](O)CCC(C)(C)[C@@H]3[C@H](O)[C@H](OC(C)=O)[C@@]2(C)O1 [forskolin]
PMA-induced nuclear export of YFP-HDAC7 (WT) [6]: no inhibitory effect

CNC[C@H](O)c1cccc(O)c1 [PE, R-(−)-Phenylephrine]
HDAC5 localization (stimulus alone) [4, 8]: HDAC5 nuclear export
expression of ANF, β-MHC and α-SMA (stimulus alone) [7]: significantly increased expression of ANF, β-MHC and α-SMA
cell size (stimulus alone) [5, 8]: increased cell size

CN(C(=O)CCCOc1ccc2[nH]c(=O)ccc2c1)C1CCCCC1 [cilostamide]
PMA-induced HDAC5 nuclear export [1]: did not block HDAC5 nuclear export
